Measured values published in US11458189B2, “Cytoprotective drugs” (BALMES TRANSPLANTATION, priority 2017, dated 2022).
Starred links: 1 amine or outer side, 2 acyl side, 3 side chain; linkers in the order of their positions; H or OH if unused. Positions of bridges follow the written chain, without caps; N, C: chain ends. Non-standard residues stand in square brackets, D forms with d. Residues, ends and D or L forms follow the SMILES beside them. ξ: configuration not given here. *: point of attachment. pTerphenylCO(4''-OnC5H11) = CCCCCOc1ccc(-c2ccc(-c3ccc(C(=O)*)cc3)cc2)cc1; Orn(4R-OH,5R-OH) = O=C([C@H](C[C@@H](O)[C@@H](O)N[*:3])N[*:1])[*:2]; hTyr(3S-OH,4S-OH) = N[C@H](C(=O)O)[C@H](O)[C@@H](O)c1ccc(O)cc1; Pro(3S-OH,4S-Me) = C[C@H]1CN[C@H](C(=O)O)[C@H]1O; ξPro(4R-OH) = O=C(O)C1C[C@@H](O)CN1

Tested on: Human Astrocytes (HA)
Experiment: Oxygen and glucose deprivation followed by replenishment, cell survival (calcein AM), HA
Assay type: cell-based
Procedure: Anidulafungin and micafungin were tested on Human Renal Glomerular Endothelial Cells (HRGEC, Innoprot P10665), on Human Renal Proximal Tubular Epithelial Cells (HRPTEpiC, Innoprot P10662), on Human Astrocytes (HA, caltag SC-1800), on Human Cardiac Microvascular Endothelial Cells (HCMEC, Caltag SC-6000), on Human Hepatic Sinusoidal Endothelial Cells (HHSEC, Caltag SC-5000), on Rat Primary Kidney Glomerular Endothelial cells (Cellbiologics, RN-6014G) and on Bovine Brain Microvascular Endothelial Cells (BBMEC, Caltag SC-B100).
In a first phase, these isolated, purified and cryopreserved cells are thawed and multiplied according to the supplier's recommendations in T75 or T175 flasks pre-coated with 2 μg of fibronectin/[…] (CORNING) for HRGEC, HCMEC, HHSEC and BBMEC, or 2 μg poly-L-lysin/cm^2 (Caltag SC-0403) for HRPTEpiC and HA, or 15 mL/flask 175 cm^2 gelatin-based solution (Cellbiologics) in the presence of endothelial cell supplemented growth medium ECM (P60104, INNOPROT, Caltag, SC-1001) for HRGEC, HCMEC, HHSEC, RPKGEC or BBMEC, or astrocyte cell supplemented growth medium AM (Caltag SC-1801) for HA or epithelial cell supplemented growth medium EpiCM (P60106, INNOPROT) for HRPTEpiC, at 37° C. under 5% CO2 and saturated humidity until their confluency. They are then harvested by trypsinization according to the method described by the supplier for exactly 5 minutes and then reseeded in new flasks a maximum of three times.
To carry out the oxygen and glucose deprivation test followed by their replenishment, the cells will be seeded in 96-well black plates with transparent flat bottom (GREINER). Once a sufficient number of cells has been obtained to allow seeding of 2000 to 15000 cells per well of 96-well plates depending on the cell type, the cells are seeded in these 96-well plates previously coated with an extracellular matrix as listed above for the flasks. The cells are cultured for 5 to 8 days according to the cell type, in the presence of the same growth medium as in the flask as described above except for HRGEC and HRPTEpiC for which DMEM (DUTSCHER) with 1 g/L of supplemented glucose is used, at 37° C. under 5% CO2 and saturated humidity to obtain confluency.
On the first day of oxygen and glucose deprivation, (5th, 6th, 7th or 8th day of culture), the culture conditions are drastically changed. The medium of all plates is removed and replaced by DMEM (DUTSCHER) medium without glucose and supplemented only with 1% penicillin-streptomycin (DUTSCHER). Anidulafungin or micafungin dissolved in dimethyl sulfoxide (DMSO) is then added to each well at the desired concentration, resulting in a maximum of 1% DMSO, and the plates are placed under hypoxia at <1% 02 and 5% CO2 at 37° C. for 24 hours of culture. Each compound was tested in a concentration range.
After 24 hours, the growth medium is changed and replaced by a richer medium, DMEM (DUTSCHER) at 1 g/L glucose and 2% FBS (INNOPROT) and 1% penicillin-streptomycin (DUTSCHER). These media will have been pre-equilibrated at 37° C. in advance. The cells are then returned to culture at 37° C. under 20% 02 and 5% CO2 for 22h.
After 22 hours of reoxygenation, the potential protective effect of anidulafungin or micafungin is measured by a cell viability test using calcein AM (CORNING), which is a dye substrate. The calcein AM can easily cross the cell membrane of the viable cells. The AM ester groups mask the part of the molecule that chelates calcium. Once inside the cells, the (non-fluorescent) calcein AM is hydrolyzed to (fluorescent) calcein by endogenous esterases. The resulting calcein molecule binds to calcium inside the cell and remains trapped inside the cell. These molecules emit strong green fluorescence when subjected to […] of a particular wavelength (495 nm). Since dead cells lack esterase activity, only living cells are labelled.
This cell viability test is performed in two steps. […]

[1] = [Anidulafungin] log μM 0.1760913
[2] = [Anidulafungin] log μM 0.7781513
[3] = [Anidulafungin] log μM −0.1249387
[4] = [Anidulafungin] log μM −0.30103
[5] = [Anidulafungin] log μM −0.5228788

With `CCCCCOc1ccc(-c2ccc(-c3ccc(C(=O)N[C@H]4C[C@@H](O)[C@@H](O)NC(=O)[C@@H]5[C@@H](O)[C@@H](C)CN5C(=O)[C@H]([C@@H](C)O)NC(=O)[C@H]([C@H](O)[C@@H](O)c5ccc(O)cc5)NC(=O)C5C[C@@H](O)CN5C(=O)[C@H]([C@@H](C)O)NC4=O)cc3)cc2)cc1` (stereo partly drawn) [Anidulafungin] ({pTerphenylCO(4''-OnC5H11)}-[Orn(4R-OH,5R-OH)]T[ξPro(4R-OH)][hTyr(3S-OH,4S-OH)]T[Pro(3S-OH,4S-Me)]; lactam 1-C) the “Globalfluo assay 1” value ([Anidulafungin] log μM 0) was 11468420 arbitrary units, the “Globalfluo assay 2” value ([Anidulafungin] log μM 0) was 12221770 arbitrary units and the “Globalfluo assay 3” value ([Anidulafungin] log μM 0) was 14645590 arbitrary units. For the same compound, the Mean globalfluo ([Anidulafungin] log μM 0) was 12778593 arbitrary units, the “Survival rate (%)” value ([Anidulafungin] log μM 0) was 15% and the “Globalfluo assay 1” value [1] was 11838960 arbitrary units. For the same compound, the “Globalfluo assay 2” value [1] was 12087610 arbitrary units, the “Globalfluo assay 3” value [1] was 13326480 arbitrary units and the Mean globalfluo [1] was 12417683 arbitrary units. The “Survival rate (%)” value [1] was 13%, the “Globalfluo assay 1” value ([Anidulafungin] log μM 0.30103) was 13177930 arbitrary units and the “Globalfluo assay 2” value ([Anidulafungin] log μM 0.30103) was 13103050 arbitrary units. The “Globalfluo assay 3” value ([Anidulafungin] log μM 0.30103) was 13640130 arbitrary units, the Mean globalfluo ([Anidulafungin] log μM 0.30103) was 13307037 arbitrary units and the “Survival rate (%)” value ([Anidulafungin] log μM 0.30103) was 18%. The “Globalfluo assay 1” value ([Anidulafungin] log μM 0.60206) was 12006890 arbitrary units, the “Globalfluo assay 2” value ([Anidulafungin] log μM 0.60206) was 13270810 arbitrary units and the “Globalfluo assay 3” value ([Anidulafungin] log μM 0.60206) was 14798310 arbitrary units. For the same compound, the Mean globalfluo ([Anidulafungin] log μM 0.60206) was 13358670 arbitrary units, the “Survival rate (%)” value ([Anidulafungin] log μM 0.60206) was 18% and the “Globalfluo assay 1” value [2] was 14108250 arbitrary units. For the same compound, the “Globalfluo assay 2” value [2] was 14242150 arbitrary units, the “Globalfluo assay 3” value [2] was 13880120 arbitrary units and the Mean globalfluo [2] was 14076840 arbitrary units. For the same compound, the “Survival rate (%)” value [2] was 22%, the “Globalfluo assay 1” value ([Anidulafungin] log μM 0.90309) was 13394210 arbitrary units and the “Globalfluo assay 2” value ([Anidulafungin] log μM 0.90309) was 14898570 arbitrary units. For the same compound, the “Globalfluo assay 3” value ([Anidulafungin] log μM 0.90309) was 14923380 arbitrary units, the Mean globalfluo ([Anidulafungin] log μM 0.90309) was 14405387 arbitrary units and the “Survival rate (%)” value ([Anidulafungin] log μM 0.90309) was 24%. The “Globalfluo assay 1” value [3] was 9674527 arbitrary units, the “Globalfluo assay 2” value [3] was 11462560 arbitrary units and the “Globalfluo assay 3” value [3] was 11240740 arbitrary units. For the same compound, the Mean globalfluo [3] was 10792609 arbitrary units, the “Survival rate (%)” value [3] was 4% and the “Globalfluo assay 1” value [4] was 12822290 arbitrary units. For the same compound, the “Globalfluo assay 2” value [4] was 11197900 arbitrary units, the “Globalfluo assay 3” value [4] was 11873360 arbitrary units and the Mean globalfluo [4] was 11964517 arbitrary units. For the same compound, the “Survival rate (%)” value [4] was 10%, the “Globalfluo assay 1” value [5] was 11050980 arbitrary units and the “Globalfluo assay 2” value [5] was 10353030 arbitrary units. The “Globalfluo assay 3” value [5] was 11612880 arbitrary units, the Mean globalfluo [5] was 11005630 arbitrary units and the “Survival rate (%)” value [5] was 5%. The “Globalfluo assay 1” value ([Anidulafungin] log μM −1) was 9709693 arbitrary units, the “Globalfluo assay 2” value ([Anidulafungin] log μM −1) was 10543570 arbitrary units and the “Globalfluo assay 3” value ([Anidulafungin] log μM −1) was 12170290 arbitrary units. The Mean globalfluo ([Anidulafungin] log μM −1) was 10807851 arbitrary units, the “Survival rate (%)” value ([Anidulafungin] log μM −1) was 4% and the “Globalfluo assay 1” value ([Anidulafungin] log μM −2) was 10301450 arbitrary units. The “Globalfluo assay 2” value ([Anidulafungin] log μM −2) was 9760112 arbitrary units, the “Globalfluo assay 3” value ([Anidulafungin] log μM −2) was 11132460 arbitrary units and the Mean globalfluo ([Anidulafungin] log μM −2) was 10398007 arbitrary units. The “Survival rate (%)” value ([Anidulafungin] log μM −2) was 2%.
